Key:
[1] = Ion-exchange plate chromatography, complexing of cations; assay type: binding; conditions: 18 cations tested on ion-exchange plates
Description: (§1) The use of thin layer chromatography plates charged with ions allows rapid evaluation of the complexing of these ions by the species to be evaluated; in the present case, plates of the Polygram Ionex 25-SA-Na type (Macherey-Nagel, ref.: 80613) charged with various counterions to be evaluated.
(§2) In each test, there is introduced onto the plate the compound of Example 1 which will be retained on the plate if it complexes the ions. […] The lower the Rf, for a given ion, the more the ion in question will form a complex with the cyclodextrin compound.
Likewise, tests were carried out to see whether the derivatives according to the invention were capable of complexing cations. Tests were carried out with the following ions:
Na^+, K^+, Cs^+,NH4^+,Ca^2+,Ba^2+, Al^3+, Fe^3+, Co^2+, Ni^2+, Cu^2+, Ag^2+, Zn^2+, Hg^2+, Pb^2+, La^3+, Gd^3+, UO2^2+.

Solubility in water = assay type: physicochemical
[2] = Ion-exchange plate chromatography (retardation factor Rf), complexing of chromium anions; assay type: binding; conditions: Polygram Ionex 25-SA-Na plates charged with the ion, developed four times in water
Description: as §1
(§3) Thus, chromatography plates are used onto which are respectively bound the ions acetyl COO^− (designated Ac in FIG. 1), PO4^3−, NO3^−, Cr2O7^2−, Cl^−, SO4^2^−, HCO3^−, BO3^−, WO4^2−, MnO4^−, CrO4^2−, AsO4^2−, AlO2^−.
as §2

[3] = Ion-exchange plate chromatography (retardation factor Rf), complexing of manganese anions; assay type: binding; conditions: Polygram Ionex 25-SA-Na plates charged with the ion, developed four times in water
Description: as §1, §3, §2

per(3,6-anhydro)cyclomaltohexaose per-2-O-ethylcarbamate [Example 1]
complexing of cations (Rf, FIG. 2) [1]: none of these cations efficiently forms a complex | solubility in water (Solubility in water): low solubility in water | complexing rate for chromium ions (Rf, FIG. 1) [2]: high complexing rate | complexing rate for manganese ions (Rf, FIG. 1) [3]: high complexing rate
